# System: DOI-induced head-shaking behavior
# Assay: DOI-induced head-shaking behavior in mice
# Type: in vivo, ICR mice
# Conditions: Mus musculus; male ICR mice, single gavage dose 1 h before DOI 1 mg/kg i.p., head-shakes counted 0-20 min; read-out: ED50 (half effective dose)
# Procedure: The efficacy of the compounds of the present disclosure was evaluated by the mice model of head-shaking behavior induced by intraperitoneal injection of (±) DOI (a hallucinogenic agent usually used to replicate anti-schizophrenic animal model).
# Experimental animals: ICR mice, male, 8 mice/group, Spelford (Beijing) Biotechnology Co., Ltd.
# Preparation of drug: the test compounds were taken, and solvent was added, and ultrasonication was performed.
# Administration route and method: oral gavage administration, 10 mL/kg (body weight).
# Administration frequency and duration: single dose.
# Animals were stratified by body weight and then randomly divided into blank group, model group, and administration groups, and detailed information of administration is shown in the following table.
# Mice were stratified according to body weight and then randomly divided into model group, blank group and each administration group. One hour after the animals were gavage administration of the solvent or drugs, they were placed in a beaker (13 cm in diameter, 19 cm in height) with fresh padding, and the model drug DOI was injected intraperitoneally at a dose of 1 mg/kg. The times of head-shaking were recorded within 0-20 minutes after DOI was injected intraperitoneally.
# Head-shaking behavior is defined as rapid rotational twitch of mouse's head or wet dog-like shaking, which should be different from normal hair grooming or inquiry behavior.
# The experimental data were expressed as x±SD, and SPSS statistical software was used to test the homogeneity of variance. If the variance was homogeneous, single factor analysis of variance was performed, and Dunnett t test is used for pairwise comparison. The ED50 was calculated by nonlinear fitting with GraphPad Primis5 software.
structure (smiles),measurement,value
"CN1C(=O)CN2c3c1cccc3[C@]1(C)CN(CCCC(=O)c3ccc(F)cc3)CC[C@H]21 [Embodiment 1-A, (6bR,10aS)-8-(4-(4-fluorophenyl)-4-oxobutyl)-3,6b-dimethyl-6b,7,8,9,10,10a-hexahydro-1H-pyrido[3′,4′:4,5]pyrrolo [1,2,3-de]quinoxalin-2(3H)-one]",ED50,0.024 mg/kg

# From US20230339949A1, “HETEROCYCLIC SUBSTITUTED FUSED y-CARBOLINE DERIVATIVE, PREPARATION METHOD THEREFOR, INTERMEDIATE THEREOF AND USE THEREOF” (SHUJING BIOPHARMA CO., LTD, priority 2020, published 2023)
